Reference: US8192962B2, “Processes for detecting toxic substances” (Daikin Industries, Ltd., priority 2001, dated 2012)

System: Stress protein genes
Test: DNA chip mRNA expression in yeast, stress protein genes (Table 6)
Format: cell-based, Saccharomyces cerevisiae S288C
How it was run: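 Values are treated/untreated fluorescence ratios from a whole-genome yeast DNA chip hybridized over 12 hours at 65° C with Cy3- or Cy5-labelled cDNA from poly(A) mRNA. Log-phase S288C yeast in YPD at 25° C had received a single toxic chemical for two hours, dosed to slow growth without killing.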

Question: Which results are given for `C=CC=O` [(14), acrolein]?
Answer: The level of expressed mRNA in the presence of chemical substance/The level of expressed mRNA in the absence of chemical substance (yeast gene YAL005C): 0.4; The level of expressed mRNA in the presence of chemical substance/The level of expressed mRNA in the absence of chemical substance (yeast gene YAL015C): 1.6; The level of expressed mRNA in the presence of chemical substance/The level of expressed mRNA in the absence of chemical substance (yeast gene YBL075C): 1.1; The level of expressed mRNA in the presence of chemical substance/The level of expressed mRNA in the absence of chemical substance (yeast gene YBL093C): 1.0; The level of expressed mRNA in the presence of chemical substance/The level of expressed mRNA in the absence of chemical substance (yeast gene YBR044C): 0.9; The level of expressed mRNA in the presence of chemical substance/The level of expressed mRNA in the absence of chemical substance (yeast gene YBR054W): 1.0; The level of expressed mRNA in the presence of chemical substance/The level of expressed mRNA in the absence of chemical substance (yeast gene YBR067C): 0.7; The level of expressed mRNA in the presence of chemical substance/The level of expressed mRNA in the absence of chemical substance (yeast gene YBR072W): 5.8; The level of expressed mRNA in the presence of chemical substance/The level of expressed mRNA in the absence of chemical substance (yeast gene YBR126C): 0.7; The level of expressed mRNA in the presence of chemical substance/The level of expressed mRNA in the absence of chemical substance (yeast gene YBR169C): 1.1; The level of expressed mRNA in the presence of chemical substance/The level of expressed mRNA in the absence of chemical substance (yeast gene YCL035C): 2.5; The level of expressed mRNA in the presence of chemical substance/The level of expressed mRNA in the absence of chemical substance (yeast gene YCR021C): 1.6; The level of expressed mRNA in the presence of chemical substance/The level of expressed mRNA in the absence of chemical substance (yeast gene YCR060W): 1.7; The level of expressed mRNA in the presence of chemical substance/The level of expressed mRNA in the absence of chemical substance (yeast gene YCR083W): 2.4; The level of expressed mRNA in the presence of chemical substance/The level of expressed mRNA in the absence of chemical substance (yeast gene YDL022W): 0.8; The level of expressed mRNA in the presence of chemical substance/The level of expressed mRNA in the absence of chemical substance (yeast gene YDL025C): 1.7; The level of expressed mRNA in the presence of chemical substance/The level of expressed mRNA in the absence of chemical substance (yeast gene YDR033W): 1.0; The level of expressed mRNA in the presence of chemical substance/The level of expressed mRNA in the absence of chemical substance (yeast gene YDR077W): 0.3; The level of expressed mRNA in the presence of chemical substance/The level of expressed mRNA in the absence of chemical substance (yeast gene YDR098C): 1.5; The level of expressed mRNA in the presence of chemical substance/The level of expressed mRNA in the absence of chemical substance (yeast gene YDR155C): 1.0; The level of expressed mRNA in the presence of chemical substance/The level of expressed mRNA in the absence of chemical substance (yeast gene YDR258C): 1.5; The level of expressed mRNA in the presence of chemical substance/The level of expressed mRNA in the absence of chemical substance (yeast gene YDR293C): 0.8; The level of expressed mRNA in the presence of chemical substance/The level of expressed mRNA in the absence of chemical substance (yeast gene YDR436W): 1.2; The level of expressed mRNA in the presence of chemical substance/The level of expressed mRNA in the absence of chemical substance (yeast gene YDR513W): 2.0; The level of expressed mRNA in the presence of chemical substance/The level of expressed mRNA in the absence of chemical substance (yeast gene YDR519W): 1.3; The level of expressed mRNA in the presence of chemical substance/The level of expressed mRNA in the absence of chemical substance (yeast gene YEL030W): 0.7; The level of expressed mRNA in the presence of chemical substance/The level of expressed mRNA in the absence of chemical substance (yeast gene YEL039C): 1.4; The level of expressed mRNA in the presence of chemical substance/The level of expressed mRNA in the absence of chemical substance (yeast gene YER042W): 5.2; The level of expressed mRNA in the presence of chemical substance/The level of expressed mRNA in the absence of chemical substance (yeast gene YER057C): 1.4; The level of expressed mRNA in the presence of chemical substance/The level of expressed mRNA in the absence of chemical substance (yeast gene YER103W): 0.9; The level of expressed mRNA in the presence of chemical substance/The level of expressed mRNA in the absence of chemical substance (yeast gene YER125W): 0.7; The level of expressed mRNA in the presence of chemical substance/The level of expressed mRNA in the absence of chemical substance (yeast gene YFL014W): 7.3; The level of expressed mRNA in the presence of chemical substance/The level of expressed mRNA in the absence of chemical substance (yeast gene YFL016C): 0.8; The level of expressed mRNA in the presence of chemical substance/The level of expressed mRNA in the absence of chemical substance (yeast gene YFL020C): 1.0; The level of expressed mRNA in the presence of chemical substance/The level of expressed mRNA in the absence of chemical substance (yeast gene YFR052W): 3.3; The level of expressed mRNA in the presence of chemical substance/The level of expressed mRNA in the absence of chemical substance (yeast gene YGL073W): 1.2; The level of expressed mRNA in the presence of chemical substance/The level of expressed mRNA in the absence of chemical substance (yeast gene YGL115W): 1.2; The level of expressed mRNA in the presence of chemical substance/The level of expressed mRNA in the absence of chemical substance (yeast gene YGL181W): 1.0; The level of expressed mRNA in the presence of chemical substance/The level of expressed mRNA in the absence of chemical substance (yeast gene YGR088W): 1.3; The level of expressed mRNA in the presence of chemical substance/The level of expressed mRNA in the absence of chemical substance (yeast gene YHL028W): 1.3; The level of expressed mRNA in the presence of chemical substance/The level of expressed mRNA in the absence of chemical substance (yeast gene YHL046C): 1.4; The level of expressed mRNA in the presence of chemical substance/The level of expressed mRNA in the absence of chemical substance (yeast gene YHR030C): 1.1; The level of expressed mRNA in the presence of chemical substance/The level of expressed mRNA in the absence of chemical substance (yeast gene YHR057C): 1.9; The level of expressed mRNA in the presence of chemical substance/The level of expressed mRNA in the absence of chemical substance (yeast gene YHR104W): 1.5; The level of expressed mRNA in the presence of chemical substance/The level of expressed mRNA in the absence of chemical substance (yeast gene YIL011W): 0.5; The level of expressed mRNA in the presence of chemical substance/The level of expressed mRNA in the absence of chemical substance (yeast gene YIL033C): 0.7; The level of expressed mRNA in the presence of chemical substance/The level of expressed mRNA in the absence of chemical substance (yeast gene YIR037W): 2.3; The level of expressed mRNA in the presence of chemical substance/The level of expressed mRNA in the absence of chemical substance (yeast gene YIR038C): 2.5; The level of expressed mRNA in the presence of chemical substance/The level of expressed mRNA in the absence of chemical substance (yeast gene YJL128C): 0.8; The level of expressed mRNA in the presence of chemical substance/The level of expressed mRNA in the absence of chemical substance (yeast gene YJL158C): 0.5; The level of expressed mRNA in the presence of chemical substance/The level of expressed mRNA in the absence of chemical substance (yeast gene YJL159W): 0.6; The level of expressed mRNA in the presence of chemical substance/The level of expressed mRNA in the absence of chemical substance (yeast gene YJL165C): 0.9; The level of expressed mRNA in the presence of chemical substance/The level of expressed mRNA in the absence of chemical substance (yeast gene YJR045C): 0.5; The level of expressed mRNA in the presence of chemical substance/The level of expressed mRNA in the absence of chemical substance (yeast gene YJR090C): 1.0; The level of expressed mRNA in the presence of chemical substance/The level of expressed mRNA in the absence of chemical substance (yeast gene YKL161C): 1.4; The level of expressed mRNA in the presence of chemical substance/The level of expressed mRNA in the absence of chemical substance (yeast gene YKL163W): 0.5; The level of expressed mRNA in the presence of chemical substance/The level of expressed mRNA in the absence of chemical substance (yeast gene YKL164C): 0.3; The level of expressed mRNA in the presence of chemical substance/The level of expressed mRNA in the absence of chemical substance (yeast gene YKL210W): 0.8; The level of expressed mRNA in the presence of chemical substance/The level of expressed mRNA in the absence of chemical substance (yeast gene YKR053C): 1.3; The level of expressed mRNA in the presence of chemical substance/The level of expressed mRNA in the absence of chemical substance (yeast gene YLL024C): 0.4; The level of expressed mRNA in the presence of chemical substance/The level of expressed mRNA in the absence of chemical substance (yeast gene YLL026W): 0.8; The level of expressed mRNA in the presence of chemical substance/The level of expressed mRNA in the absence of chemical substance (yeast gene YLL039C): 1.4; The level of expressed mRNA in the presence of chemical substance/The level of expressed mRNA in the absence of chemical substance (yeast gene YLL060C): 10.6; The level of expressed mRNA in the presence of chemical substance/The level of expressed mRNA in the absence of chemical substance (yeast gene YLR006C): 1.0; The level of expressed mRNA in the presence of chemical substance/The level of expressed mRNA in the absence of chemical substance (yeast gene YLR109W): 2.3; The level of expressed mRNA in the presence of chemical substance/The level of expressed mRNA in the absence of chemical substance (yeast gene YLR259C): 0.8; The level of expressed mRNA in the presence of chemical substance/The level of expressed mRNA in the absence of chemical substance (yeast gene YML007W): 1.2; The level of expressed mRNA in the presence of chemical substance/The level of expressed mRNA in the absence of chemical substance (yeast gene YML070W): 1.3; The level of expressed mRNA in the presence of chemical substance/The level of expressed mRNA in the absence of chemical substance (yeast gene YMR021C): 1.3; The level of expressed mRNA in the presence of chemical substance/The level of expressed mRNA in the absence of chemical substance (yeast gene YMR173W): 2.3; The level of expressed mRNA in the presence of chemical substance/The level of expressed mRNA in the absence of chemical substance (yeast gene YMR186W): 0.6; The level of expressed mRNA in the presence of chemical substance/The level of expressed mRNA in the absence of chemical substance (yeast gene YNL064C): 0.8; The level of expressed mRNA in the presence of chemical substance/The level of expressed mRNA in the absence of chemical substance (yeast gene YNL160W): 1.3; The level of expressed mRNA in the presence of chemical substance/The level of expressed mRNA in the absence of chemical substance (yeast gene YNL241C): 1.1; The level of expressed mRNA in the presence of chemical substance/The level of expressed mRNA in the absence of chemical substance (yeast gene YNR076W): 0.8; The level of expressed mRNA in the presence of chemical substance/The level of expressed mRNA in the absence of chemical substance (yeast gene YOL064C): 0.9; The level of expressed mRNA in the presence of chemical substance/The level of expressed mRNA in the absence of chemical substance (yeast gene YOL161C): 0.9; The level of expressed mRNA in the presence of chemical substance/The level of expressed mRNA in the absence of chemical substance (yeast gene YOR008C): 0.9; The level of expressed mRNA in the presence of chemical substance/The level of expressed mRNA in the absence of chemical substance (yeast gene YOR009W): 0.7; The level of expressed mRNA in the presence of chemical substance/The level of expressed mRNA in the absence of chemical substance (yeast gene YOR010C): 0.4; The level of expressed mRNA in the presence of chemical substance/The level of expressed mRNA in the absence of chemical substance (yeast gene YOR027W): 0.8; The level of expressed mRNA in the presence of chemical substance/The level of expressed mRNA in the absence of chemical substance (yeast gene YOR208W): 1.3; The level of expressed mRNA in the presence of chemical substance/The level of expressed mRNA in the absence of chemical substance (yeast gene YPL059W): 1.3; The level of expressed mRNA in the presence of chemical substance/The level of expressed mRNA in the absence of chemical substance (yeast gene YPL106C): 0.9; The level of expressed mRNA in the presence of chemical substance/The level of expressed mRNA in the absence of chemical substance (yeast gene YPL140C): 1.1; The level of expressed mRNA in the presence of chemical substance/The level of expressed mRNA in the absence of chemical substance (yeast gene YPL194W): 1.1; The level of expressed mRNA in the presence of chemical substance/The level of expressed mRNA in the absence of chemical substance (yeast gene YPL223C): 2.5; The level of expressed mRNA in the presence of chemical substance/The level of expressed mRNA in the absence of chemical substance (yeast gene YPL240C): 0.7; The level of expressed mRNA in the presence of chemical substance/The level of expressed mRNA in the absence of chemical substance (yeast gene YPR005C): 1.3; The level of expressed mRNA in the presence of chemical substance/The level of expressed mRNA in the absence of chemical substance (yeast gene YPR026W): 1.5
